For orientation: EC50 means the midpoint of the concentration-response curve. The low end stands for higher potency in that assay, the high end for lower potency in that assay. For orientation: AUC(0-inf) means total exposure, with the tail of the curve extrapolated. For orientation: AUC(0-t) means exposure summed from dosing to a finite time, without extrapolation to infinity. A word on the Cmax: it is the maximum level reached in the sampled fluid or tissue. As usually defined, the Tmax is the time from dosing to the highest level. Broadly, the Vd is a proportionality between amount in the body and measured concentration, not a real space. What is called clearance is a measure of how efficiently the substance is removed, as volume per time. Higher therefore signals a high capacity for elimination. One may read the half-life as how long it takes for the measured level to halve. Read a low half-life as rapid decline.

Experimental findings from US10647693B2, “Inhibitors of influenza virus replication, application methods and uses thereof” (SUNSHINE LAKE PHARMA CO., LTD., priority 2016, dated 2020) are described below.

For one series, the system named is virus H1N1 A/Weiss/43. The series can be described thus: microbe, parasite or virus in culture. To be noted: Influenza A virus, 120 h; inhibition of CPE caused by A/Weiss/43(H1N1) in MDCK cells, 5 days, CCK-8. The format is cell-based.
A further series is described as follows: in vivo. Conditions: SD, rat.
The conditions of series [1]: SD, rat, in vivo, po, 5 mg/kg.
Description: (§1) Pharmacokinetic characteristics of the compound of the invention in SD rat were evaluated. The compounds disclosed herein were administered in form of a saline solution containing 5% DMSO, 5% Kolliphor HS 15 and 90% Saline. For intravenous administration (i.v.), the animals were administered with a dose of 1 mg/kg, and blood samples (0.3 mL) were collected at the time points of 0.083, 0.25, 0.5, 1.0, 2.0, 5.0, 7.0 and 24 h after drug administration, then each blood sample was processed to separate plasma by centrifugation at 3000 rpm or 4000 rpm for 10 minutes. For oral administration (p.o.), the animals were administered with a dose of 5 mg/kg, and blood samples (0.3 mL) were collected at the time points of 0.25, 0.5, 1.0, 2.0, 5.0, 7.0 and 24 h after drug administration, then each blood sample was processed to separate plasma by centrifugation at 3000 rpm or 4000 rpm for 10 minutes. Plasma samples were collected and stored at −20° C. or −70° C. until LC/MS/MS analysis.

Description for in vivo: as §1

As for `Cn1ccc2c(NC3C4CCC(CC4)C3C(=O)O)nc(-c3c[nH]c4ncc(F)cc34)cc21` (racemic) [Example 20, (+/−)-trans-3-((6-(5-fluoro-1H-pyrrolo[2,3-b]pyridin-3-yl)-1-methyl-1H-pyrrolo[3,2-c]pyridin-4-yl)amino)bicyclo[2.2.2]octane-2-carboxylic Acid], a half-maximal effect with virus H1N1 A/Weiss/43 (EC50) was put at 2.58 nM.

Regarding `N#Cc1c(-c2c[nH]c3c(F)cc(F)cc23)nc(NC2C3CCC(CC3)C2C(=O)O)c(F)c1-c1ccc(C(F)(F)F)cc1` (racemic) [Example 3, (+/−)-trans-3-((5-cyano-6-(5,7-difluoro-1H-indol-3-yl)-3-fluoro-4-(4-trifluoromethylphenyl)pyridin-2-yl)amino)bicyclo[2.2.2]octane-2-carboxylic Acid], in the series “in vivo” (iv, 1 mg/kg), the AUC(0-inf) was 2620 ng·h/mL, the AUC(0-t) is 2580 ng·h/mL, the peak level (Cmax) was 4340 ng/mL and the Tmax came out at 0.083 h. In “in vivo” (iv, 1 mg/kg), the Vd turned out to be 1.98 L/kg, the clearance was found to be 7.18 mL/min/kg and the half-life was 1.13 h. Besides, in the series “in vivo” (po, 5 mg/kg), the AUC(0-inf) was 13100 ng·h/mL, the AUC(0-t) amounted to 12600 ng·h/mL, the highest level (Cmax) was 8860 ng/mL and the Tmax turned out to be 0.35 h. Further, the half-life in the series “in vivo” (po, 5 mg/kg) is 1.76 h. Moreover, the F in series [1] is on record as 104.6%.

Consider `N#Cc1c(-c2c[nH]c3c(F)cc(F)cc23)nc(NC2C3CCC(CC3)C2C(=O)O)c(F)c1-c1ccco1` (racemic) [Example 1, (+/−)-trans-3-((5-cyano-6-(5,7-difluoro-1H-indol-3-yl)-3-fluoro-4-(furan-2-yl)pyridin-2-yl)amino)bicyclo[2.2.2]octane-2-carboxylic Acid], for which, in the series “in vivo” (iv, 1 mg/kg), the AUC(0-inf) turned out to be 5710 ng·h/mL, the AUC(0-t) came out at 5680 ng·h/mL, the Cmax was 6560 ng/mL and the Tmax was 0.083 h. For the same compound, in “in vivo” (iv, 1 mg/kg), the Vd was 0.231 L/kg, the clearance was determined as 3.86 mL/min/kg and the half-life is 1.24 h. In addition, in “in vivo” (po, 5 mg/kg), the AUC(0-inf) was found to be 21600 ng·h/mL, the AUC(0-t) came to 21300 ng·h/mL, the Cmax was 5780 ng/mL and the Tmax amounted to 1.1 h. In the series “in vivo” (po, 5 mg/kg), this compound had a half-life of 1.52 h. Further, the EC50 in the series with virus H1N1 A/Weiss/43 was 0.27 nM. The same compound had a F in series [1] of 83.9%.

On to `N#Cc1c(-c2c[nH]c3ncc(F)cc23)nc(NC2C3CCC(CC3)C2C(=O)O)c(F)c1C1CC1` (racemic) [Example 9, (+/−)-trans-3-((5-cyano-4-cyclopropyl-3-fluoro-6-(5-fluoro-1H-pyrrolo[2,3-b]pyridin-3-yl)pyridin-2-yl)amino)bicyclo[2.2.2]octane-2-carboxylic Acid], for which, in the series “in vivo” (iv, 1 mg/kg), the AUC(0-inf) worked out at 2710 ng·h/mL, the area under the curve AUC(0-t) was determined as 2640 ng·h/mL, the Cmax was found to be 3640 ng/mL and the Tmax came out at 0.083 h. Moreover, in “in vivo” (iv, 1 mg/kg), the Vd was 0.551 L/kg, the clearance turned out to be 5.46 mL/min/kg and the half-life is 2.15 h. In addition, in “in vivo” (po, 5 mg/kg), the AUC(0-inf) came out at 8230 ng·h/mL, the AUC(0-t) was 8140 ng·h/mL, the maximum concentration (Cmax) came to 2850 ng/mL and the Tmax was 0.46 h. This compound also showed a half-life in “in vivo” (po, 5 mg/kg) of 3.39 h. Moreover, in the series on virus H1N1 A/Weiss/43, the EC50 was 0.49 nM. Moreover, the F in series [1] was 65.2%.

In the case of `Cn1cc(-c2c(F)c(N[C@H]3C4CCC(CC4)[C@@H]3C(=O)O)nc(-c3c[nH]c4c(F)cc(F)cc34)c2C#N)cn1` [Example 12a, (2S,3S)-3-((5-cyano-6-(5,7-difluoro-1H-indol-3-yl)-3-fluoro-4-(1-methyl-1H-pyrazol-4-yl)pyridin-2-yl)amino)bicyclo[2.2.2]octane-2-carboxylic Acid], the EC50 in the series with virus H1N1 A/Weiss/43 is 0.96 nM.

`N#Cc1c(-c2c[nH]c3c(F)cc(F)cc23)nc(NC2C3CCC(CC3)C2C(=O)O)c(F)c1-c1ccccc1` (racemic) [Example 14, (+/−)-trans-3-((5-cyano-6-(5,7-difluoro-1H-indol-3-yl)-3-fluoro-4-phenylpyridin-2-yl)amino)bicyclo[2.2.2]octane-2-carboxylic Acid]: in “in vivo” (iv, 1 mg/kg), the AUC(0-inf) was 3520 ng·h/mL, the AUC(0-t) is 3450 ng·h/mL, the Cmax is 4130 ng/mL and the Tmax worked out at 0.083 h. Besides, in the series “in vivo” (iv, 1 mg/kg), the Vd turned out to be 0.432 L/kg, the clearance turned out to be 5.12 mL/min/kg and the half-life is 1.31 h. In the series “in vivo” (po, 5 mg/kg), the AUC(0-inf) is 10300 ng·h/mL, the AUC(0-t) stood at 10100 ng·h/mL, the Cmax stood at 2980 ng/mL and the Tmax is 1.22 h. The compound also gave a half-life in the series “in vivo” (po, 5 mg/kg) of 1.46 h. Further, the EC50 in the series on virus H1N1 A/Weiss/43 was 10.5 nM. In series [1], the F came out at 74.6%.

Regarding `N#Cc1c(-c2c[nH]c3c(F)cc(F)cc23)nc(NC2C3CCC(CC3)C2C(=O)O)c(F)c1C1CC1` (racemic) [Example 8, (+/−)-trans-3-((5-cyano-4-cyclopropyl-6-(5,7-difluoro-1H-indol-3-yl)-3-fluoropyridin-2-yl)amino)bicyclo[2.2.2]octane-2-carboxylic Acid], the midpoint of the response in the series with virus H1N1 A/Weiss/43, the EC50, lay at 5.09 nM.
